Results published in EPA's ToxValDB 9.5.

Experiments:
[1] = test system: Rattus norvegicus; conditions: oral
[2] = test system: Mus musculus; conditions: developmental; inhalation; M/F; delayed fetal ossification
[3] = test system: Mus musculus; conditions: developmental; duration: 9 days; inhalation; M/F; CF1; developmental
[4] = test system: Canidae; conditions: subchronic, oral, diet, Beagle
[5] = test system: Rattus norvegicus; conditions: oral; for LD50: acute
[6] = test system: Oryctolagus sp.; conditions: acute; dermal
[7] = test system: Rattus norvegicus; conditions: chronic; oral; M/F; body weight depression
[8] = test system: Rattus norvegicus; conditions: chronic; duration: 1 years; oral; Increased liver and uterus/cervix weights
[9] = reproduction developmental, duration: 15 days, diet, Sprague-Dawley
[10] = subchronic, duration: 90 days, diet

In the case of ClCCOCOCCCl [Bis(2-chloroethoxy)methane], the NOAEL ([1]; subchronic, duration: 90 days, gavage, M/F, Sprague-Dawley, hepatic) is reported as 10 mg/kg-day.
CCCl [Chloroethane] gave an LOAEL [2] of 13000 mg/m3, an NOAEL [2] of 4000 mg/m3 and an NOAEL ([1]; short-term, duration: 14 days, drinking water, F, Fischer 344, Whole Body Effects) of 361 mg/kg-day. The NOAEL [3] was 3970 mg/m3.
With Cc1cc(C(C)(C)C)c(O)c(C)c1Cn1c(=O)n(Cc2c(C)cc(C(C)(C)C)c(O)c2C)c(=O)n(Cc2c(C)cc(C(C)(C)C)c(O)c2C)c1=O [Cyanox CY 1790] the NOAEL ([4]; duration: 13 weeks) was 46 mg/kg-day, the NOAEL ([4]; duration: 30 days) was 400 mg/kg-day and the NOAEL ([4]; duration: 90 days) was 30 mg/kg-day. The LD50 ([5]; Wistar) was over 10000 mg/kg, the LOAEL [5, 9] was 10000 ppm and the NOAEL [5, 9] was 1000 ppm. The NOAEL ([5]; reproduction developmental, diet, Sprague-Dawley, generation: F0) was 1000 ppm, the NOAEL ([5]; reproduction developmental, diet, Sprague-Dawley, generation: F1) was 20000 ppm and the NOAEL ([5]; subchronic, duration: 90 days, diet, Sprague-Dawley) was 400 mg/kg-day. The LD50 [6] was over 5000 mg/kg.
Compound O=C1CCCCC1 [Cyclohexanone] has an LOAEL [7] of 910 mg/kg-day, an NOAEL [7] of 462 mg/kg-day and an NOAEL ([1]; chronic, duration: 25 weeks, drinking water, M, Fischer 344, Whole Body Effects) of 731 mg/kg-day.
C=CC[N+](C)(C)CC=C.[Cl-] [Diallyldimethylammonium chloride] was tested, and the LOAEL ([4]; duration: 90 days) was 800 mg/kg-day, the NOAEL ([4]; duration: 90 days) was 200 mg/kg-day and the LD50 ([5]; gavage, Sprague-Dawley) was 2520 mg/kg. For the same compound, the LD50 ([5]; gavage, Wistar) was 3930 mg/kg, the NOAEL ([5]; developmental, duration: 9 days, gavage, Sprague-Dawley) was 6 mg/kg-day and the NOAEL ([5]; reproduction developmental, duration: 9 days, gavage, F, Sprague-Dawley) was 6 mg/kg-day. The NOAEL ([5]; reproduction developmental, duration: 133 days, gavage, Sprague-Dawley, generation: F0) was 1.25 mg/kg-day, the NOAEL ([5]; reproduction developmental, duration: 133 days, gavage, Sprague-Dawley, generation: F1) was 1.25 mg/kg-day and the NOAEL ([5]; reproduction developmental, duration: 133 days, gavage, Sprague-Dawley, generation: F2) was 1.25 mg/kg-day. For the same compound, the LOAEL [5, 10] was 500 mg/kg-day and the NOAEL [5, 10] was 50 mg/kg-day.
Work on COC(=O)c1ccccc1C(=O)OC [Dimethyl phthalate] yielded an LD50 [5] of 6900 mg/kg, an NOAEL ([5]; developmental, duration: 10 days, diet, Sprague-Dawley) of over 3570 mg/kg-day and an NOAEL ([5]; reproduction developmental, duration: 10 days, diet, F, Sprague-Dawley) of 840 mg/kg-day. It also gave an LOAEL ([1]; short-term, duration: 1 weeks, diet, M, Wistar) of 302 mg/kg-day.
For [Lu] [Lutetium], the NOAEL ([1]; subchronic, duration: 90 days, diet, M/F, CRW) was 504 mg/kg-day.
With CO[C@H]1C[C@H](O[C@@H]2/C(C)=C/C[C@@H]3C[C@@H](C[C@]4(CC[C@H](C)[C@@H](C5CCCCC5)O4)O3)OC(=O)[C@@H]3C=C(C)/C(=N/O)[C@H]4OC/C(=C\C=C\[C@@H]2C)[C@]43O)O[C@@H](C)[C@@H]1O [Selamectin] the NOAEL [8] was 5 mg/kg-day.
